Target: Pantothenate kinase 3 (Homo sapiens, UniProt Q9H999)
Assay: PANK Activity Assay
Method: All the experiments were repeated twice in duplicate and the data were an average ±data range. […] The experiments mimicking the mixture of ligands present in vivo were performed under different conditions.

Sequence of Pantothenate kinase 3 (Q9H999 whole entry): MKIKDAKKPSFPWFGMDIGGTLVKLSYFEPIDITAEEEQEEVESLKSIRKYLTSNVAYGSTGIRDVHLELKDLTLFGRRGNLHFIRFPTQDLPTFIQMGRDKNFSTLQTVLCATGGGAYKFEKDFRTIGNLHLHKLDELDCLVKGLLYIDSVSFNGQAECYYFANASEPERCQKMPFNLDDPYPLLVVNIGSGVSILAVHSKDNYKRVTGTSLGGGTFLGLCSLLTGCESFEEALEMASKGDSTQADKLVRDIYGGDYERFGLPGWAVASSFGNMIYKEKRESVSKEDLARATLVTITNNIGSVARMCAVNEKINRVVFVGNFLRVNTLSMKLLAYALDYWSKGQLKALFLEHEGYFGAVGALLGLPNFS

O=C(Cc1ccc(C2CC2)c(F)c1)N1CCN(c2nc3ncc(F)cc3o2)CC1 [US12534451, Compound PZ-4351]
IC50: 1.23 nM
